The target of assay [1] is Epidermal growth factor receptor (Homo sapiens, UniProt P00533). Description: Selectivity interaction (Rxn Biology Kinase assay) EUB0001632a EGFR. Particulars: at 10 µM.
For assay [2], the target named is Serine/threonine-protein kinase VRK2 (Homo sapiens) (UniProt Q86Y07). Description: Selectivity interaction (LanthaScreen Eu Kinase Binding Assay) EUB0001632a VRK2. Particulars: at 10 µM. For orientation: In TR-FRET formats the signal depends on donor and acceptor labels being close together.
Assay [3] is described as follows: Selectivity interaction (Kinase panel (KiNativ target engagement assay in Jurkat cells)) EUB0001635a STLK6. To be noted: Selectivity number of off-targets 0; Selectivity number of targets 233; Source Knowledge https://www.sciencedirect.com/science/article/pii/S2451945619300674?via%3Dihub; at 1 µM.
Assay [4] concerns the target Bone morphogenetic protein receptor type-1A (Homo sapiens, UniProt P36894). Description: Selectivity interaction (Ambit KINOMEscan and KiNATiv profiling in Jurkat cells) EUB0000090b BMPR1A. To be noted: at 1 µM. Type of assay: cell-based.
Assay [5] has as its target Cyclin-dependent kinase 8 (Homo sapiens, UniProt P49336). Put plainly: Selectivity interaction (Ambit KINOMEscan and KiNATiv profiling in Jurkat cells) EUB0000090b CDK8. The format is cell-based. Particulars: at 1 µM.
Assay [6] deals with Ephrin type-A receptor 5 (Homo sapiens) (UniProt P54756). Description: Selectivity interaction (KinomeScan (DiscoverX)) EUB0000607a EPHA5. Particulars: at 10 µM.
For assay [7], the target named is Homeodomain-interacting protein kinase 1 (Homo sapiens, UniProt Q86Z02). Put plainly: Selectivity interaction (KinomeScan (DiscoverX)) EUB0000607a HIPK1. Particulars: at 10 µM.
Assay [8] has as its target Ribosomal protein S6 kinase alpha-5 (Homo sapiens) (UniProt O75582). To be noted: at 10 µM.
Assay [9] concerns the target Leukocyte tyrosine kinase receptor (Homo sapiens, UniProt P29376). Put plainly: Selectivity interaction (KinomeScan (DiscoverX)) EUB0000229b LTK. Particulars: at 10 µM.
Assay [10] concerns the target Dual specificity protein kinase CLK4 (Homo sapiens, UniProt Q9HAZ1). Description: Selectivity interaction (Kinase panel (Invitrogen)) EUB0000639a CLK4. To be noted: at 200 nM.
The target of assay [11] is Serine/threonine-protein kinase 24 (Homo sapiens) (UniProt Q9Y6E0). Description: Selectivity interaction (ActivX KiNativ screen (kinase selectivity in THP-1 cell lysates)) EUB0000639a STK24. The format is subcellular. To be noted: lysate, at 0.04 µM.
The target in assay [12] is T1, Serine/threonine-protein kinase Nek2 (Homo sapiens) (UniProt P51955).
T1 sequence (whole entry): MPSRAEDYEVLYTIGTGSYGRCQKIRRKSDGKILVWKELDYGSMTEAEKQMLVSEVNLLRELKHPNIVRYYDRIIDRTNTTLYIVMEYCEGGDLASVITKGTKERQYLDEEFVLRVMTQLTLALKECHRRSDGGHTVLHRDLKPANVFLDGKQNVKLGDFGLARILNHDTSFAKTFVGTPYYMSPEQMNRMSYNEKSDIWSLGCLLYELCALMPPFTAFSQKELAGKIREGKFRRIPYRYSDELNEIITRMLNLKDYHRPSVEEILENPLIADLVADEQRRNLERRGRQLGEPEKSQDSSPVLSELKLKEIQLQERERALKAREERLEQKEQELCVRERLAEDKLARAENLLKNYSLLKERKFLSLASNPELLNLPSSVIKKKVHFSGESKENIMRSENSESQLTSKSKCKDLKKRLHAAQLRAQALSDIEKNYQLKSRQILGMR
Description: Selectivity interaction (Kinase screening (Nanosyn)) EUB0000604a NEK2.

The target in assay [13] is T2, Dual specificity mitogen-activated protein kinase kinase 7 (Homo sapiens) (UniProt O14733).
T2 sequence (whole entry): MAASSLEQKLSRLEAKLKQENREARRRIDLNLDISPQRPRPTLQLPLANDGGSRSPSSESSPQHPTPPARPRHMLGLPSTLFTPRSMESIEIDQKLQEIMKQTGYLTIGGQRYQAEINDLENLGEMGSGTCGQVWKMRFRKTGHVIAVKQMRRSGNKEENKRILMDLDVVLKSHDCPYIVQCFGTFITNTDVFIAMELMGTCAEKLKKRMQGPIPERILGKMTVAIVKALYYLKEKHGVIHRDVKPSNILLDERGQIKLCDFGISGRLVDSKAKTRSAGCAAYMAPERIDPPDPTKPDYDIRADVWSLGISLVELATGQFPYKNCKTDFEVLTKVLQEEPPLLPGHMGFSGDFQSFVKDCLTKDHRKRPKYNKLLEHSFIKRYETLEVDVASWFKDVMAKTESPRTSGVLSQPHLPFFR
Put plainly: Selectivity interaction (Millipore kinase profiler) EUB0000124b MAP2K7. Particulars: at 10 µM.

Assay [14] addresses Homeodomain-interacting protein kinase 2 (Homo sapiens, UniProt Q9H2X6). Put plainly: Selectivity interaction (ProQinase) EUB0000171b HIPK2.
Assay [15] addresses Tau-tubulin kinase 1 (Homo sapiens) (UniProt Q5TCY1). Description: Selectivity interaction (ProQinase) EUB0000171b TTBK1.
For assay [16], the target named is Bromodomain-containing protein 8 (Homo sapiens) (UniProt Q9H0E9). Description: Selectivity interaction (Bromodomain panel (DSF asssay)) EUB0000270b BRD8.
In assay [17] the test system is Phosphatidylinositol 4,5-bisphosphate 3-kinase catalytic subunit alpha isoform (Homo sapiens), P42336 [C420R]. Put plainly: (§1) Selectivity interaction (KinomeScan (DiscoverX)) EUB0000092b PIK3CA. Particulars: at 10 µM.
The subject of assay [18] is Phosphatidylinositol 4,5-bisphosphate 3-kinase catalytic subunit alpha isoform (Homo sapiens), P42336 [E542K]. The assay is described as §1. Particulars: at 10 µM.
In assay [19] the test system is Phosphatidylinositol 4,5-bisphosphate 3-kinase catalytic subunit alpha isoform (Homo sapiens), P42336 [E545A]. Described as §1. Particulars: at 10 µM.
For assay [20], the system named is Phosphatidylinositol 4,5-bisphosphate 3-kinase catalytic subunit alpha isoform (Homo sapiens), P42336 [E545K]. Described as §1. To be noted: at 10 µM.
For assay [21], the system named is Phosphatidylinositol 4,5-bisphosphate 3-kinase catalytic subunit alpha isoform (Homo sapiens), P42336 [H1047L]. Described as §1. Particulars: at 10 µM.
Assay [22] has as its system Phosphatidylinositol 4,5-bisphosphate 3-kinase catalytic subunit alpha isoform (Homo sapiens), P42336 [M1043I]. The description is as §1. Particulars: at 10 µM.
Assay [23] relates to Phosphatidylinositol 4,5-bisphosphate 3-kinase catalytic subunit alpha isoform (Homo sapiens), P42336 [Q546K]. The assay is described as §1. To be noted: at 10 µM.
Assay [24] deals with Calcium/calmodulin-dependent protein kinase type II subunit delta (Homo sapiens) (UniProt Q13557). Description: Selectivity interaction (KinomeScan (DiscoverX)) EUB0000595a CAMK2D. Particulars: at 10 µM.

The text below walks through data of ChEMBL document CHEMBL5465560, “Selectivity Literature for EUbOPEN Chemogenomic Library” (2024).

Tau-tubulin kinase 1 (Homo sapiens), sequence (Q5TCY1 whole entry): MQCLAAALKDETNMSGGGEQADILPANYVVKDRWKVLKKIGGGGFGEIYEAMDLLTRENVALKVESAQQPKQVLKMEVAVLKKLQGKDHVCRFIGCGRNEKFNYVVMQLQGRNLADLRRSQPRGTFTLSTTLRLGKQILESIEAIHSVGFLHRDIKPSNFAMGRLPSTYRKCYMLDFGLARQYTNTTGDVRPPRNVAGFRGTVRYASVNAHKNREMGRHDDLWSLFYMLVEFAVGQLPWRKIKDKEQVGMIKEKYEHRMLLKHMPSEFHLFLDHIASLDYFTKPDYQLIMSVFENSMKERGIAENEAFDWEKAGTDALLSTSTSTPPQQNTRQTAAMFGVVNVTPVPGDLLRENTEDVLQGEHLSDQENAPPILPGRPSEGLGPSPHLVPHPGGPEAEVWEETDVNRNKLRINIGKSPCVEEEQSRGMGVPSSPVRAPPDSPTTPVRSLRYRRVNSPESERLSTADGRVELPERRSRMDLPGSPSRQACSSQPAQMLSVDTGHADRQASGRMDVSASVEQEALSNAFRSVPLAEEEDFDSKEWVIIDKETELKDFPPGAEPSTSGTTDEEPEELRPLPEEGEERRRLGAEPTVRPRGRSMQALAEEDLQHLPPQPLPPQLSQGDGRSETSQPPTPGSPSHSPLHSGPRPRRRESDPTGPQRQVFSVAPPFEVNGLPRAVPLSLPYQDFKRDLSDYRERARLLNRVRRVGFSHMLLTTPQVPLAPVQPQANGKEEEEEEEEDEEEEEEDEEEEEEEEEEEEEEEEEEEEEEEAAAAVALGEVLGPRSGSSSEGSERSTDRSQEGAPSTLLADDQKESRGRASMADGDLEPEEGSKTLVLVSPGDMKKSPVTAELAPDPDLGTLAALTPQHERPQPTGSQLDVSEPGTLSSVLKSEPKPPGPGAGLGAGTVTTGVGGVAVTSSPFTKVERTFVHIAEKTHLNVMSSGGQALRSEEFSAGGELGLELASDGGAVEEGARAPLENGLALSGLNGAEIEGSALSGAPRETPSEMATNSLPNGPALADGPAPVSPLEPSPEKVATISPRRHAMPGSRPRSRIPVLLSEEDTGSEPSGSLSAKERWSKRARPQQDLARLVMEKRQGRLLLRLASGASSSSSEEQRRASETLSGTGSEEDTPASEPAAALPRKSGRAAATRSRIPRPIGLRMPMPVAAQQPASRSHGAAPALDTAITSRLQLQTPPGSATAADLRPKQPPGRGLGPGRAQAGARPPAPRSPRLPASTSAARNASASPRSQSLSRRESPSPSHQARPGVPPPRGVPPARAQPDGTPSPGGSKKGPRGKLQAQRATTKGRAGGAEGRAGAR
Homeodomain-interacting protein kinase 2, sequence (Q9H2X6 whole entry, looked up): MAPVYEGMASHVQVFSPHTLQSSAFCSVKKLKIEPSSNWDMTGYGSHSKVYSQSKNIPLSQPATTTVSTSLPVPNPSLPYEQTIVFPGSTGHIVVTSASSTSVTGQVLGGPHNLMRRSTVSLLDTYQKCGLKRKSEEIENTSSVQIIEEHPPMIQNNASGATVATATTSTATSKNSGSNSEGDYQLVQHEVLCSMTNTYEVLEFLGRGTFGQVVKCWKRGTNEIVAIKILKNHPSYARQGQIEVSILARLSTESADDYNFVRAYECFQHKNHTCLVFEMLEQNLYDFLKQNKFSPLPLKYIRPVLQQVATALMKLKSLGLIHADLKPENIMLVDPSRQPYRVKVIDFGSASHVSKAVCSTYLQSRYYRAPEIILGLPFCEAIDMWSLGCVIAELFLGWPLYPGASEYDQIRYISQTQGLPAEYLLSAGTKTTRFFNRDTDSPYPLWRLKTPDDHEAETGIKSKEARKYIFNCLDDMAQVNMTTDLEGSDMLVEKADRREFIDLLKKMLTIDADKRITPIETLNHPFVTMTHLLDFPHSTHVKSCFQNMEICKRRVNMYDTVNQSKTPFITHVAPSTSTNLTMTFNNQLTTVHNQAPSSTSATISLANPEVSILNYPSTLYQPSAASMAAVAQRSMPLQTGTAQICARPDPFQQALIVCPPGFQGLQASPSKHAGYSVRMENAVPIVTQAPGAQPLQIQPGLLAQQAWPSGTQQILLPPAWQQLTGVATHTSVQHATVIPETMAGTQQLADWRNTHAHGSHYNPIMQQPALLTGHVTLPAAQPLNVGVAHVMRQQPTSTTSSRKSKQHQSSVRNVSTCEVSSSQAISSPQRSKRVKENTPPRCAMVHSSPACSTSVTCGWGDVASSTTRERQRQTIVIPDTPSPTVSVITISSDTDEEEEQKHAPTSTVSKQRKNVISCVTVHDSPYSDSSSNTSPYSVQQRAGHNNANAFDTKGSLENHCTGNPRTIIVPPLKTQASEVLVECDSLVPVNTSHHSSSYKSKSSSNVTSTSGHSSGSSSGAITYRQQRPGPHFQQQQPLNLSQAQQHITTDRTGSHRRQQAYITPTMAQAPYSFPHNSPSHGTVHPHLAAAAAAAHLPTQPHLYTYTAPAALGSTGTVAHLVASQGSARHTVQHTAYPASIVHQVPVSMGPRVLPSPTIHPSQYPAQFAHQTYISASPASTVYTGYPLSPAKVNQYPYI
Phosphatidylinositol 4,5-bisphosphate 3-kinase catalytic subunit alpha isoform (Homo sapiens), P42336 [E542K], sequence (P42336 whole entry E542K, canonical isoform): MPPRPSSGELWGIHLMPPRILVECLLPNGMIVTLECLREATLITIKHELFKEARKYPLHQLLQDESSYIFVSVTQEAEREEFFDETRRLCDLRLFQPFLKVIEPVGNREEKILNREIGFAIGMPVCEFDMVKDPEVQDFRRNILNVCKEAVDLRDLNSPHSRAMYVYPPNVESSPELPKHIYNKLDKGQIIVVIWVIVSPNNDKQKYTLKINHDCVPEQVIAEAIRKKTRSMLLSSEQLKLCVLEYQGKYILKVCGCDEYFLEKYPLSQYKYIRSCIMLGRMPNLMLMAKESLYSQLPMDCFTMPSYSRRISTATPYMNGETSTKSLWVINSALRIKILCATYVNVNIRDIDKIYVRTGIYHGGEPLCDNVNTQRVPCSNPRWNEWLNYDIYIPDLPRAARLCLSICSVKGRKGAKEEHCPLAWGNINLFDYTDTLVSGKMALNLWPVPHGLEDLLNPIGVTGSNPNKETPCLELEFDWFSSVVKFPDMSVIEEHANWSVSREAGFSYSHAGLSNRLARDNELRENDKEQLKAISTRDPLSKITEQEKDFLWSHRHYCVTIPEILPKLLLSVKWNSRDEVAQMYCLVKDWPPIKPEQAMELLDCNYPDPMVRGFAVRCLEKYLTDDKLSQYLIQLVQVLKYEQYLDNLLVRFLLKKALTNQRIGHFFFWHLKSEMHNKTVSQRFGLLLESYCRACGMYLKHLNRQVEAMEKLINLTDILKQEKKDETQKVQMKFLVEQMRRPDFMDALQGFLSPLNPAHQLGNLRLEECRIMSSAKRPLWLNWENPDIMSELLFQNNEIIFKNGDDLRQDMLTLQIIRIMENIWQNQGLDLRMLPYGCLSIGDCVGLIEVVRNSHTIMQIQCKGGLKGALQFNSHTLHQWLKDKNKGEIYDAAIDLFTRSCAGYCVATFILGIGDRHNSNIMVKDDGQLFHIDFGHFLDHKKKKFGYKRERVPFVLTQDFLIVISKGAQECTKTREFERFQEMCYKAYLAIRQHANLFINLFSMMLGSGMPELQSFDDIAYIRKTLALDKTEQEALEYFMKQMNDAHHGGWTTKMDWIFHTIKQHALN
Cyclin-dependent kinase 8, sequence (P49336 whole entry): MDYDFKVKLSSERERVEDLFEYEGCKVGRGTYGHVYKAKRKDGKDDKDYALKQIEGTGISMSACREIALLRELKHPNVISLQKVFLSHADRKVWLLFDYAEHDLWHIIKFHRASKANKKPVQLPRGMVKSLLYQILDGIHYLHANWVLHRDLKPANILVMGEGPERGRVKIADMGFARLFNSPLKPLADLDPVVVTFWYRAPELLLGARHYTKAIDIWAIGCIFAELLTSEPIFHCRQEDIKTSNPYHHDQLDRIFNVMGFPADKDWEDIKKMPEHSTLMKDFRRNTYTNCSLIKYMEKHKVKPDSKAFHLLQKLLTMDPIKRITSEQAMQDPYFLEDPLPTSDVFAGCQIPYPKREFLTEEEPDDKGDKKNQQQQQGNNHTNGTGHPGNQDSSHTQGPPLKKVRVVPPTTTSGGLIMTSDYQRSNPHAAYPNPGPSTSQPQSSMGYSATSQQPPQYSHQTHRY
Phosphatidylinositol 4,5-bisphosphate 3-kinase catalytic subunit alpha isoform (Homo sapiens), P42336 [M1043I], sequence (P42336 whole entry M1043I, canonical isoform): as the sequence (P42336 whole entry E542K, canonical isoform) above, with K542E, M1043I counted along it

Turning to `Cn1cc(-n2cnc3c(NCc4nc5cc(Cl)c(Cl)cc5[nH]4)nc(N4CCOCC4)nc32)cn1`, the % of inhibition in [1] was 3.44%; in assay [2] it was -14%.
For `C=CC(=O)Nc1ccc(C(=O)Nc2[nH]nc3c2CN(C(=O)N[C@H](CN(C)C)c2ccccc2)C3(C)C)cc1`, in assay [3], the “% of engagement” value is on record as -9%.
Turning to `CN(C)C/C=C/C(=O)Nc1ccc(C(=O)N2CCCC(Nc3ncc(Cl)c(-c4c[nH]c5ccccc45)n3)C2)cc1` (stereo unspecified), the % of control in assay [4] and in assay [5] was 100% each time.
For the compound `CNC(=O)Nc1ccc(-c2nc(N3CC4CCC(C3)O4)c3cnn(C4CCC5(CC4)OCCO5)c3n2)cc1`, the % of control in [6] was found to be 92%; in [7], 100%.
For `Cc1cc([C@@H](C)Nc2ccccc2C(=O)O)c2nc(N3CCOCC3)cc(=O)n2c1` [AZD-6482], the % of control in assay [8] stood at 91%.
`COc1cc(N(C)c2ccnc3ccc(C(F)(F)F)cc23)cc(OC)c1OC` showed a % binding in assay [9] of 96%.
`CC[C@@H]1[C@H](F)C(=O)N[C@@H]1COc1nccc2cc(C(N)=O)c(OC)cc12` [ZIMLOVISERTIB]: the % of inhibition in assay [10] was determined as 75.7%; in [11], 13.3%.
As for `Cc1cnc(Nc2ccc(F)cc2Cl)nc1-c1c[nH]c(C(=O)N[C@H](CO)c2cccc(Cl)c2)c1`, in assay [12], the % of inhibition is 3%.
Compound `CC(=O)Nc1cccc(-n2c(=O)n(C3CC3)c(=O)c3c(Nc4ccc(I)cc4F)n(C)c(=O)c(C)c32)c1` gave a % of control in [13] of 109%.
With `C=CC(=O)Nc1cccc(C(=O)Nc2ccc(Nc3cc(-c4[nH]c(SC)nc4C)ccn3)cc2)c1`, the % of control in assay [14] (at 1 µM) was determined as 100%; in assay [14] (at 5 µM), 87%; in assay [15] (at 1 µM), 102%; in assay [15] (at 5 µM) it was 106%.
The compound `Cc1cc(CN)cc(C)c1-c1ncn(C)c1-c1cncn1C` yielded a dTM in assay [16] of -1.17 K.
Turning to `CCC(=O)N1CCN(c2ccc(-n3c(=O)ccc4cnc5ccc(-c6cnc7ccccc7c6)cc5c43)cc2C(F)(F)F)CC1`, the % of control in assay [17] came out at 0.7%; in assay [18] it was 1%; in assay [19] it was 1%; in [20], 0.6%; in [21], 2.6%; in assay [22], 8.6%. In addition, in assay [23], the % of control turned out to be 6.8%.
Turning to `COCC(=O)NC/C=C/c1ccc2ncnc(Nc3ccc(Oc4ccc(C)nc4)c(C)c3)c2c1` [CP-724714], the % of control in assay [24] worked out at 100%.
